Measurements taken from US6528464B1, “Composition and method for inhibiting uptake of biguanide antimicrobials by hydrogels” (Bausch & Lomb Incorporated, priority 2001, dated 2003).

Experiment: Uptake (sorption) of Alexidine by SureVue hydrogel contact lenses after overnight soak
Assay type: physicochemical
Text: The following examples evaluate whether the addition of cyclodextrin reduced the sorption of the biguanide Alexidine on SureVue® brand hydrogel contact lenses (commercially available from Johnson & Johnson Vision Care Incorporated of Jacksonville, Fla.).
5. 3-mL of each test solution, as well as the control solution, were placed into the lens cases for a total of 5 samples per solution.
6. SureVue® lenses were placed into each lens well aseptically.
7. Each lens was “dipped” into double-distilled water for approximately 2 seconds prior to installation into the lens cases.
8. Lenses were allowed to soak for approximately 18 hours (overnight).
9. 1-mL of solution from each of the lens wells was removed, analyzed and returned to the lens cases.

Structure (SMILES)	Uptake of Alexidine by SureVue ® Lenses (0.1% Beta-Cyclodextrin) (0.1% Beta-Cyclodextrin, soak approximately 18 hours) [ppm]	Uptake of Alexidine by SureVue ® Lenses (0.3% Beta-Cyclodextrin) (0.3% Beta-Cyclodextrin, soak approximately 18 hours) [ppm]	Uptake of Alexidine By SureVue ® Lenses (no Beta-Cyclodextrin (control solution), soak approximately 18 hours) [ppm]	Inhibition of uptake of Alexidine by SureVue ® Lenses (0.1% Beta-Cyclodextrin) [% Inhibition]	Inhibition of uptake of Alexidine by SureVue ® Lenses (0.3% Beta-Cyclodextrin) [% Inbibition]
CCCCC(CC)CNC(=N)NC(=N)NCCCCCCNC(=N)NC(=N)NCC(CC)CCCC (centres unmarked) [Alexidine]	62.10	31.04	75.26		
OC[C@H]1O[C@@H]2O[C@H]3[C@H](O)[C@@H](O)[C@@H](O[C@H]4[C@H](O)[C@@H](O)[C@@H](O[C@H]5[C@H](O)[C@@H](O)[C@@H](O[C@H]6[C@H](O)[C@@H](O)[C@@H](O[C@H]7[C@H](O)[C@@H](O)[C@@H](O[C@H]8[C@H](O)[C@@H](O)[C@@H](O[C@H]1[C@H](O)[C@H]2O)O[C@@H]8CO)O[C@@H]7CO)O[C@@H]6CO)O[C@@H]5CO)O[C@@H]4CO)O[C@@H]3CO [Beta-Cyclodextrin]				17.50	58.75
